Measurements taken from article PMC4120117 (Bioorganic & medicinal chemistry letters, 2014).

Test system: three MycP1 variants
Format: biochemical, M. tuberculosis, M. thermoresistible, M. smegmatis

HAlaValLysAlaAlaB(OH)2 [Compound 1]
inhibition (in words): poorer inhibition than compound 2
